This passage reports Activity results from ChEMBL document CHEMBL2074022, “Penetration of endogenous steroid hormones corticosterone, cortisol, aldosterone and progesterone into the brain is enhanced in mice deficient for both mdr1a and mdr1b P-glycoproteins” (J Neuroendocrinol, 2002).

Settings in all cases: in vivo
Data set [1] addresses P-glycoprotein 1 and 3 (MDR1a/MDR1b) (Mus musculus, UniProt P21447+P06795). Put plainly: (§1) TP_TRANSPORTER: increase in testes concentration in mdr1a/1b(-/-) mouse. The data set is classed as functional, organism-based, Testis.
Data set [2] concerns the target T1, ATP-dependent translocase ABCB1 (Mus musculus, UniProt P21447). The data set is described as §1. It is filed as functional, organism-based, Testis.
In data set [3] the target is T1, ATP-dependent translocase ABCB1. Put plainly: TP_TRANSPORTER: increase in brain concentration in mdr1a/1b(-/-) mouse. The data set is classed as functional, organism-based.

T1 sequence (P21447 whole entry): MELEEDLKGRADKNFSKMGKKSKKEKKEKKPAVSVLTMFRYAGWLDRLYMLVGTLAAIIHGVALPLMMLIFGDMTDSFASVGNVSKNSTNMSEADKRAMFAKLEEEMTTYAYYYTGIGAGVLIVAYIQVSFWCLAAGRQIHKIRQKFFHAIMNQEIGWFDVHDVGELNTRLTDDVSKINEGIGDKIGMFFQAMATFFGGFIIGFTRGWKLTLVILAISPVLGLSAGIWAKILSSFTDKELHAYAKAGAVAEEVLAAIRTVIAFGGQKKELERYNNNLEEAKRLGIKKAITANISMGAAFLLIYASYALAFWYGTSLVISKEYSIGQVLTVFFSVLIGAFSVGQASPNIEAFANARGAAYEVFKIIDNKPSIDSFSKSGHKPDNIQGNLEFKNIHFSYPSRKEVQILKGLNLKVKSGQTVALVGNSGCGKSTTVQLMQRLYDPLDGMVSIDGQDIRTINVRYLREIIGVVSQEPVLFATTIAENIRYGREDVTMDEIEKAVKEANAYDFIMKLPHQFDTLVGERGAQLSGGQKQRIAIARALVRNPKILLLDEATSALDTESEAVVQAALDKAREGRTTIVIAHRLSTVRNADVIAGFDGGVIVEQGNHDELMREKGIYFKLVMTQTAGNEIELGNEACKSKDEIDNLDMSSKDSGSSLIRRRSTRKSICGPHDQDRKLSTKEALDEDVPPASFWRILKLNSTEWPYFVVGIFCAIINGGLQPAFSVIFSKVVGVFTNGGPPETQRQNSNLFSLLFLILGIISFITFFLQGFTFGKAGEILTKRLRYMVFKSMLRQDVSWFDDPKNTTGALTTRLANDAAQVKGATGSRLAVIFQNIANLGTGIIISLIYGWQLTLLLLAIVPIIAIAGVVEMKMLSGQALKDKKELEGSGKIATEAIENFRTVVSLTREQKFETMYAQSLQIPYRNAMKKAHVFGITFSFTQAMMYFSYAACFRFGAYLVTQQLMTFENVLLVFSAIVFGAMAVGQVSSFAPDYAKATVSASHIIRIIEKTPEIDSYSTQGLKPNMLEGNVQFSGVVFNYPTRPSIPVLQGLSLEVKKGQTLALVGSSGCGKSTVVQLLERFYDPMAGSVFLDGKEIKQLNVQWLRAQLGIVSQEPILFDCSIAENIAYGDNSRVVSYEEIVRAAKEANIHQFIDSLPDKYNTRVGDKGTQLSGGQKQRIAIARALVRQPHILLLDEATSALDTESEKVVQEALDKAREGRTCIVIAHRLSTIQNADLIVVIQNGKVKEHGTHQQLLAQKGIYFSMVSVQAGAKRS

As to `C[C@]12CCC(=O)C=C1CC[C@@H]1[C@@H]2[C@@H](O)C[C@]2(C=O)[C@@H](C(=O)CO)CC[C@@H]12` [ALDOSTERONE], the Activity entry in data set [1] was “substrate [+]”.

Consider `C[C@]12CCC(=O)C=C1CC[C@@H]1[C@@H]2[C@@H](O)C[C@@]2(C)[C@H]1CC[C@]2(O)C(=O)CO` [HYDROCORTISONE], for which the Activity result in data set [1] was “substrate [+]”.

Regarding `CC(=O)[C@H]1CC[C@H]2[C@@H]3CCC4=CC(=O)CC[C@]4(C)[C@H]3CC[C@]12C` [PROGESTERONE], the Activity entry in data set [2] and in data set [3] was “substrate [+]” throughout.
